In data set [1] the target is T1, Cholinesterase (Homo sapiens, UniProt P06276). The data set is described as follows: Inhibition of recombinant human BuChE using butyrylthiocholine iodide as substrate at 10 uM preincubated with enzyme for 5 mins followed by substrate addition and measured after 1 min by Ellman's method relative to control. The note with it: time 6.0 min. In general terms: In Ellman's method for cholinesterases, released thiocholine reacts with DTNB.

For data set [2], the target named is T1, Cholinesterase. The data set is described as follows: Inhibition of recombinant human BuChE using butyrylthiocholine iodide as substrate preincubated with enzyme for 5 mins followed by substrate addition and measured after 1 min by Ellman's method.
A further data set can be described thus: in vitro. The settings on record: PAMPA.
A short description of data set [3]: Cytotoxicity against human SH-SY5Y cells assessed as inhibition of cell growth incubated for 24 hrs by MTT assay. The data set is classed as toxicity, cell-based. Background: Formazan colour is commonly taken as a measure of viable cells.
Data set [4] is described as follows: Cytotoxicity against human HepG2 cells assessed as inhibition of cell growth incubated for 24 hrs by MTT assay. The format is toxicity, cell-based.
The next data set has as its target Acetylcholinesterase (Homo sapiens, UniProt P22303). The data set is described as follows: Inhibition of recombinant human AChE using acetylthiocholine iodide as substrate preincubated with enzyme for 5 mins followed by substrate addition and measured after 1 min by Ellman's method.

T1 sequence (P06276 whole entry): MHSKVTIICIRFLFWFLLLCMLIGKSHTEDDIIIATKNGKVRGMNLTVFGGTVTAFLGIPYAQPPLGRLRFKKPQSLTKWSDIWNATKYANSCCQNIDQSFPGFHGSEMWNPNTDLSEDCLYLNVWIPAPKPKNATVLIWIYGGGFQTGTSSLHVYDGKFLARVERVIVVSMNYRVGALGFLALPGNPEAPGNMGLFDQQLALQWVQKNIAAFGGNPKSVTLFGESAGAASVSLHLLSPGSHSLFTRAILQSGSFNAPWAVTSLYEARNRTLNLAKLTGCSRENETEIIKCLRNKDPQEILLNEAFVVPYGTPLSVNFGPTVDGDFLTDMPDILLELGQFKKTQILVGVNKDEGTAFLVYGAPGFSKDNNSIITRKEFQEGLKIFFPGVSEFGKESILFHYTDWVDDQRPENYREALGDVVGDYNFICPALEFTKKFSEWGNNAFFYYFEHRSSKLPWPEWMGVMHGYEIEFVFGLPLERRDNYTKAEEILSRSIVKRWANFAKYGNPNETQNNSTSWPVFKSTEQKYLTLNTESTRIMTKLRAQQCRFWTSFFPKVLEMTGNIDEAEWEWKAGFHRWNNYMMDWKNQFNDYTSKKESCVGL
Sequence of Acetylcholinesterase (P22303 whole entry): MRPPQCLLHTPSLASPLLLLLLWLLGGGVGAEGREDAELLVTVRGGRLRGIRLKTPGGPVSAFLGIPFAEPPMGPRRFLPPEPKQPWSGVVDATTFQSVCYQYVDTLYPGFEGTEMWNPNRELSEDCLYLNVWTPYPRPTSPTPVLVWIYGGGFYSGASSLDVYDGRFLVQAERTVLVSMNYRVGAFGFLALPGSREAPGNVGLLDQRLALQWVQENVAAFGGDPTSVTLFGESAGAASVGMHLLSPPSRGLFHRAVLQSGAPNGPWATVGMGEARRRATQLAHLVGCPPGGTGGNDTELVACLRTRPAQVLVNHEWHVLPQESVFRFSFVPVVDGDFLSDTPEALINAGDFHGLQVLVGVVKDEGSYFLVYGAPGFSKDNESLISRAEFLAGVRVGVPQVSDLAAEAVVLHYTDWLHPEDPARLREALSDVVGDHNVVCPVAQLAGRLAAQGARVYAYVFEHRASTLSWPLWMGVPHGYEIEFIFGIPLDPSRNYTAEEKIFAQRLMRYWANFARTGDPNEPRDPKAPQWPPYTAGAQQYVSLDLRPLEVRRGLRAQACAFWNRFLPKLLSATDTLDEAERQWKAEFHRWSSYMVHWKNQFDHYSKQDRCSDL
Description for in vitro: Permeability of the compound incubated for 3 to 6 hrs by PAMPA-BBB assay

Take `CCCN(CCc1ccc(O)cc1)Cc1cccc(OC)c1OCc1ccccc1`: on Cholinesterase [1], the inhibition (in general, the share of the control response that was lost under treatment) is 95%. The figures for the concentration for half-maximal inhibition (IC50) on Cholinesterase [2] and on Acetylcholinesterase were 0.09 µM and above 10 µM, respectively. Besides, the apparent permeability (Papp) (as a rule, a coefficient for how fast a substance crosses the barrier) in “in vitro” was determined as 14 ×10⁻⁶ cm/s. For the same compound, the results for the IC50 at 24 h in data set [3] and in data set [4] were 44 µM and 43 µM, respectively.
For `CCCN(CCCc1ccccc1)Cc1cccc(OC)c1OCc1ccccc1`, at Cholinesterase [1], the inhibition is 98%. For the same compound, the IC50 (in general, the concentration that inhibits the measured activity by half) was 0.04 µM at Cholinesterase [2] and above 10 µM at Acetylcholinesterase. This compound also showed a Papp in “in vitro” of 32 ×10⁻⁶ cm/s. Further, the IC50 at 24 h in data set [3] is above 63 µM; in data set [4], 48 µM.
For the compound `CCCN(CCCc1cccc(F)c1)Cc1cccc(OC)c1OCc1ccccc1`, the inhibition on Cholinesterase [1] was 97%. Besides, the values for the IC50 on Cholinesterase [2] and on Acetylcholinesterase were 0.039 µM and above 10 µM, respectively. The Papp in “in vitro” was found to be 27 ×10⁻⁶ cm/s. Also, the IC50 at 24 h in data set [3] came to 123 µM; in data set [4], 41 µM.
With `C=CCN(CCCc1ccccc1)Cc1cccc(OC)c1OCc1ccccc1`, the inhibition on Cholinesterase [1] was 98%. Further, the figures for the IC50 on Cholinesterase [2] and on Acetylcholinesterase were 0.04 µM and above 10 µM, respectively. For the same compound, the Papp in the data set “in vitro” was 28 ×10⁻⁶ cm/s. Further, the IC50 at 24 h in data set [3] and in data set [4] was above 200 µM in each case.
For the compound `CCCN(CCCc1ccc(F)cc1)Cc1cccc(OC)c1OCc1ccccc1`, the inhibition at Cholinesterase [1] was 96%. Also, the results for the IC50 on Cholinesterase [2] and on Acetylcholinesterase were 0.1 µM and above 10 µM, respectively. Besides, the Papp in “in vitro” turned out to be 61 ×10⁻⁶ cm/s. Besides, the IC50 at 24 h in data set [3] came to 170 µM; in data set [4] it was 32 µM.
With `COc1ccc2c3c1O[C@H]1C[C@@H](O)C=C[C@@]31CCN(C)C2` [GALANTAMINE], the IC50 at 24 h in data set [3] was found to be 4700 µM; in data set [4], 4200 µM.
With `CCCCCCN(CCCc1ccccc1)Cc1cccc(OC)c1OCc1ccccc1`, the inhibition on Cholinesterase [1] amounted to 95%. Besides, the IC50 at Cholinesterase [2] was 0.04 µM; at Acetylcholinesterase, above 10 µM. The compound also yielded a Papp in “in vitro” of 9 ×10⁻⁶ cm/s. Moreover, the IC50 at 24 h amounted to 110 µM in data set [3] and 106 µM in data set [4].
On to `CCCN(C/C=C/c1ccccc1)Cc1cccc(OC)c1OCc1ccccc1`, for which the inhibition on Cholinesterase [1] is 97%. In addition, the IC50 is 0.04 µM at Cholinesterase [2] and above 10 µM at Acetylcholinesterase. Also, the Papp in “in vitro” is 41 ×10⁻⁶ cm/s. In addition, the IC50 at 24 h in data set [3] came out at 174 µM; in data set [4] it was 36 µM.
`CCCN(CCCc1ccc(O)cc1)Cc1cccc(OC)c1OCc1ccccc1`: on Cholinesterase [1], the inhibition turned out to be 98%. In addition, the IC50 was 0.07 µM at Cholinesterase [2] and above 10 µM on Acetylcholinesterase. The compound further showed a Papp in the data set “in vitro” of 16 ×10⁻⁶ cm/s. Also, the IC50 at 24 h in data set [3] turned out to be 44 µM; in data set [4], 31 µM.
Take `C=CCCN(CCCc1ccccc1)Cc1cccc(OC)c1OCc1ccccc1`: on Cholinesterase [1], the inhibition was 97%. Besides, the half-inhibitory concentration (IC50) is 0.07 µM at Cholinesterase [2] and above 10 µM at Acetylcholinesterase. In the data set “in vitro”, this compound had a Papp of 33 ×10⁻⁶ cm/s. In addition, the IC50 at 24 h was found to be 131 µM in data set [3] and 92 µM in data set [4].
With `CO/N=C(\C(=O)N[C@@H]1C(=O)N2C(C(=O)O)=C(COC(N)=O)CS[C@H]12)c1ccco1` [CEFUROXIME], in the data set “in vitro”, the Papp came to 0.6 ×10⁻⁶ cm/s.
Turning to `CCN(CCCc1ccccc1)Cc1cccc(OC)c1OCc1ccccc1`, the inhibition on Cholinesterase [1] was 98%. The IC50 at Cholinesterase [2] was 0.06 µM; at Acetylcholinesterase it was above 10 µM. Moreover, the values for the IC50 at 24 h in data set [3] and in data set [4] were 34 µM and 23 µM, respectively.
With `COc1cccc(CN(CCCc2ccccc2F)C2CCCC2)c1OCc1ccccc1`, the inhibition on Cholinesterase [1] came to 99%. Besides, the values for the IC50 at Cholinesterase [2] and on Acetylcholinesterase were 0.006 µM and above 10 µM, respectively. In the data set “in vitro”, this compound yielded an apparent permeability coefficient (Papp) of 61 ×10⁻⁶ cm/s. For the same compound, the IC50 at 24 h was found to be 55 µM in data set [3] and 28 µM in data set [4].
For `COc1cccc(CNCCCc2ccccc2)c1OCc1ccccc1`, the inhibition at Cholinesterase [1] turned out to be 97%. Moreover, the IC50 at Cholinesterase [2] is 0.09 µM; on Acetylcholinesterase it was above 10 µM. The same compound returned a Papp in the data set “in vitro” of 21 ×10⁻⁶ cm/s. Moreover, the IC50 at 24 h in data set [3] turned out to be 8.9 µM.
Turning to `C#CCOc1ccc(CCN(CC#C)Cc2cccc(OC)c2OCc2ccccc2)cc1`, the inhibition at Cholinesterase [1] came out at 72%. The IC50 on Cholinesterase [2] is 0.2 µM; at Acetylcholinesterase, above 10 µM.

The values are drawn from ChEMBL document CHEMBL5360557 (Eur J Med Chem, 2023).
